Source: patent publication US20250290117A1, “MOLECULAR PHENOTYPIC ANTIMICROBIAL SUSCEPTIBILITY TESTING” (priority 2024, published 2025)

How the values were obtained:
[1] = test system: pathogens of clinical samples; experiment: Molecular phenotypic antimicrobial susceptibility test of clinical samples, extraction DNA purification step prior to PCR (Table 6); format: cell-based
Protocol: (§1) Detection of Molecular Phenotypic Antimicrobial Susceptibility. Disclosed herein are the methods for the detection of phenotypic antimicrobial susceptibility via molecular methods. The present invention describes how a specimen 100 with a known microbial load is incubated and then exposed to a panel of antimicrobial agents to determine sensitivity (prevention of growth) or resistance (allowance of growth) to the specific antimicrobial agents tested utilizing molecular methods.
(§2) Sample Collection. Specimens 100 are collected from patients using sterile collection processes that are employed in routine clinical care. Specimens are transported to the testing facility in boric acid preservative.
(§3) Preparation of the Specimens for Testing. […] The process for pathogen isolation includes steps of harvesting the pathogen (e.g., via centrifugation), isolating pathogen DNA via a DNA isolation and/or purification kit, and performing PCR on the pathogen DNA via PCR components (e.g., primers, enzymes, buffers) as would be known to the skilled artisan. […] This aliquot is used for antimicrobial susceptibility testing if indicated based on the pathogen detection results. […] Specimens 100 with lower pathogen loads could also be utilized in the antibiotic susceptibility phase of testing with or without a longer incubation period.
(§4) Preparation of Antimicrobial Susceptibility Testing Plates. Antimicrobial solutions are prepared at known concentrations. The specific antimicrobials and their concentrations are selected based on the pathogen of interest and the described antimicrobial resistance breakpoints for that specimen pathogen and antimicrobial combination. These antimicrobials have been selected based on those commonly utilized by healthcare providers in routine clinical care for the specific type of suspected infection. The number and types of antimicrobials utilized can be customized based on the infection source, pathogen detected, patient-specific factors such as allergies or other health conditions (e.g., chronic kidney disease or concurrent medication use), or healthcare provider preferences such as antimicrobial availability or cost.
(§5) The antimicrobial solutions are prepared in liquid culture media (such as Muller Hinton Broth) to achieve the desired antimicrobial concentration and are then stored at −80° C. until use. For a given specimen, each antimicrobial is tested at a single or multiple antimicrobial concentration(s) which is its established breakpoints for sensitivity. The antimicrobial solutions are prepared and plated out for each specific pathogen. […] This allows for evaluation of pathogen load when no antimicrobial is present.
(§6) Specimen Exposure to Antimicrobial Agents. The 1 mL aliquot of the specimen 100 previously mixed with culture media and incubated is obtained. Using optical density measurements as a guide, the specimen 100 is diluted to 0.5 McFarland.
(§7) Antimicrobial exposure plates are typically placed into an incubator for 12-16 hours.
(§8) Nucleic Acid Amplification of Antimicrobial Agent Exposed Pathogens. The antimicrobial exposure plate is removed after the period of incubation. The specimen then undergoes a purification or lysis step. For example, the specimen may undergo a purification step (e.g., magnetic bead-based or other separation protocol to isolate genetic material). In another example, the specimen may undergo a cell lysis step. For example, buffer (e.g., lysis buffer) may be added and incubated in the thermal cycler for preparation for direct PCR. Next, the specimen may undergo a polymerase chain reaction (PCR) testing protocol, whereby a semi-quantitative PCR method is utilized. This may be completed either with or without a specific extraction protocol step. The pathogens can be individually targeted and detected, or a universal genetic sequence can be utilized to detect the antimicrobial susceptibility of the specimen as a whole.

[2] = test system: pathogens of clinical samples; experiment: Molecular phenotypic antimicrobial susceptibility test of clinical samples, direct PCR without a separate DNA purification step (Table 6); format: cell-based
Protocol: as §1, §2, §3, §4, §5, §6, §7, §8

[3] = E. coli, clinical sample of r10-r24
[4] = E. coli, clinical sample of r158-r172
[5] = E. faecalis, clinical sample of r93-r99
[6] = E. faecalis, clinical sample of r114-r120
[7] = E. faecalis, clinical sample of r151-r157
[8] = K. aerogenes, clinical sample of r136-r150
[9] = K. pneumoniae, clinical sample of r121-r135
[10] = M. morganii, clinical sample of r55-r69
[11] = M. morganii, clinical sample of r70-r84
[12] = P. mirabilis, clinical sample of r25-r39
[13] = P. mirabilis, clinical sample of r40-r54
[14] = S. aureus, clinical sample of r85-r92

Compound: O=C1CN(/N=C/c2ccc([N+](=O)[O-])o2)C(=O)N1 [Nitrofurantoin]
- Molecular Antibiotic Susceptibility Result [1, 3]: Sensitive (Antimicrobial wells with pathogen load detected below the control wells (typically >2 cycle thresholds later) may be reported as Sensitive)
- Ct ([1]; E. coli, clinical sample of r10-r24, Ct Control Avg 18.112): 29.981
- Molecular Antibiotic Susceptibility Result [1, 4]: Sensitive (Antimicrobial wells with pathogen load detected below the control wells (typically >2 cycle thresholds later) may be reported as Sensitive)
- Ct ([1]; E. coli, clinical sample of r158-r172, Ct Control Avg 20.146): 34.794
- Molecular Antibiotic Susceptibility Result [1, 5]: Sensitive (Antimicrobial wells with pathogen load detected below the control wells (typically >2 cycle thresholds later) may be reported as Sensitive)
- Ct ([1]; E. faecalis, clinical sample of r93-r99, Ct Control Avg 22.987): 38.744
- Ct ([1]; E. faecalis, clinical sample of r100-r106, Ct Control Avg 23.073): 37.449
- Ct ([1]; E. faecalis, clinical sample of r107-r113, Ct Control Avg 22.144): 32.584
- Molecular Antibiotic Susceptibility Result [1, 6]: Sensitive (Antimicrobial wells with pathogen load detected below the control wells (typically >2 cycle thresholds later) may be reported as Sensitive)
- Ct ([1]; E. faecalis, clinical sample of r114-r120, Ct Control Avg 20.822): 34.318
- Molecular Antibiotic Susceptibility Result [1, 7]: Sensitive (Antimicrobial wells with pathogen load detected below the control wells (typically >2 cycle thresholds later) may be reported as Sensitive)
- Molecular Antibiotic Susceptibility Result [1, 8]: Sensitive (Antimicrobial wells with pathogen load detected below the control wells (typically >2 cycle thresholds later) may be reported as Sensitive)
- Ct ([1]; K. aerogenes, clinical sample of r136-r150, Ct Control Avg 19.994): 38.755
- Molecular Antibiotic Susceptibility Result [1, 9]: Sensitive (Antimicrobial wells with pathogen load detected below the control wells (typically >2 cycle thresholds later) may be reported as Sensitive)
- Ct ([1]; K. pneumoniae, clinical sample of r121-r135, Ct Control Avg 24.272): 33.13
- Molecular Antibiotic Susceptibility Result [1, 10]: Sensitive (Antimicrobial wells with pathogen load detected below the control wells (typically >2 cycle thresholds later) may be reported as Sensitive)
- Molecular Antibiotic Susceptibility Result [1, 11]: Sensitive (Antimicrobial wells with pathogen load detected below the control wells (typically >2 cycle thresholds later) may be reported as Sensitive)
- Molecular Antibiotic Susceptibility Result [1, 12]: Resistant
- Ct ([1]; P. mirabilis, clinical sample of r25-r39, Ct Control Avg 26.064): 22.903
- Molecular Antibiotic Susceptibility Result [1, 13]: Resistant
- Ct ([1]; P. mirabilis, clinical sample of r40-r54, Ct Control Avg 26.987): 23.887
- Molecular Antibiotic Susceptibility Result [1, 14]: Sensitive (Antimicrobial wells with pathogen load detected below the control wells (typically >2 cycle thresholds later) may be reported as Sensitive)
- Ct ([1]; S. aureus, clinical sample of r85-r92, Ct Control Avg 24.32): 30.822
- Molecular Antibiotic Susceptibility Result [2, 3]: Sensitive (Antimicrobial wells with pathogen load detected below the control wells (typically >2 cycle thresholds later) may be reported as Sensitive)
- Ct ([2]; E. coli, clinical sample of r10-r24, Ct control avg 12.97): 24.883
- Molecular Antibiotic Susceptibility Result [2, 4]: Sensitive (Antimicrobial wells with pathogen load detected below the control wells (typically >2 cycle thresholds later) may be reported as Sensitive)
- Ct ([2]; E. coli, clinical sample of r158-r172, Ct control avg 12.894): 27.377
- Molecular Antibiotic Susceptibility Result [2, 5]: Sensitive (Antimicrobial wells with pathogen load detected below the control wells (typically >2 cycle thresholds later) may be reported as Sensitive)
- Ct ([2]; E. faecalis, clinical sample of r93-r99, Ct control avg 22.011): 36.826
- Ct ([2]; E. faecalis, clinical sample of r100-r106, Ct control avg 21.027): 33.684
- Ct ([2]; E. faecalis, clinical sample of r107-r113, Ct control avg 20.529): 32.294
- Molecular Antibiotic Susceptibility Result [2, 6]: Sensitive (Antimicrobial wells with pathogen load detected below the control wells (typically >2 cycle thresholds later) may be reported as Sensitive)
- Ct ([2]; E. faecalis, clinical sample of r114-r120, Ct control avg 20.909): 32.771
- Molecular Antibiotic Susceptibility Result [2, 7]: Sensitive (Antimicrobial wells with pathogen load detected below the control wells (typically >2 cycle thresholds later) may be reported as Sensitive)
- Ct ([2]; E. faecalis, clinical sample of r151-r157, Ct control avg 18.551): 37.634
- Molecular Antibiotic Susceptibility Result [2, 8]: Sensitive (Antimicrobial wells with pathogen load detected below the control wells (typically >2 cycle thresholds later) may be reported as Sensitive)
- Ct ([2]; K. aerogenes, clinical sample of r136-r150, Ct control avg 13.854): 29.821
- Molecular Antibiotic Susceptibility Result [2, 9]: Sensitive (Antimicrobial wells with pathogen load detected below the control wells (typically >2 cycle thresholds later) may be reported as Sensitive)
- Ct ([2]; K. pneumoniae, clinical sample of r121-r135, Ct control avg […]): 28.708
- Molecular Antibiotic Susceptibility Result [2, 10]: Sensitive (Antimicrobial wells with pathogen load detected below the control wells (typically >2 cycle thresholds later) may be reported as Sensitive)
- Ct ([2]; M. morganii, clinical sample of r55-r69, Ct control avg 12.09): 28.588
- Molecular Antibiotic Susceptibility Result [2, 11]: Sensitive (Antimicrobial wells with pathogen load detected below the control wells (typically >2 cycle thresholds later) may be reported as Sensitive)
- Ct ([2]; M. morganii, clinical sample of r70-r84, Ct control avg 11.677): 29.959
- Molecular Antibiotic Susceptibility Result [2, 12]: Resistant
- Ct ([2]; P. mirabilis, clinical sample of r25-r39, Ct control avg 11.801): 12.013
- Molecular Antibiotic Susceptibility Result [2, 13]: Resistant
- Ct ([2]; P. mirabilis, clinical sample of r40-r54, Ct control avg 10.06): 10.329
- Molecular Antibiotic Susceptibility Result [2, 14]: Sensitive (Antimicrobial wells with pathogen load detected below the control wells (typically >2 cycle thresholds later) may be reported as Sensitive)
- Ct ([2]; S. aureus, clinical sample of r85-r92, Ct control avg 20.309): 32.477
